We go through one compound from patent US6821769B2, “IniB, iniA and iniC genes of mycobacteria and methods of use” (priority 1998, dated 2004).

The test system of this experiment is iniA. The experiment is classed as cell-based, BCG.

The structures appear in SMILES notation.

As to `NNC(=O)c1ccncc1` [isoniazid], the “Induction of iniA in isoniazid resistant BCG strain” value is listed as “Lack of iniA induction” and the “Induction of iniA in isoniazid susceptible BCG strain” value is given as “seen only in the susceptible BCG strain”.
